Patent publication US9029414B2, “Triterpenoid compounds and methods of use thereof” (Biotechnology Research Corporation, priority 2008, dated 2015)

Columns and labels:
[1] = target: EP2 receptor (Homo sapiens, UniProt P43116); test: Cellular receptor functional assay (cAMP), EP2; format: cell-based; set-up: expressed in transfected cells; conditions: for Agonist effect, cAMP measurement / Antagonist effect, cAMP measurement: EP2 receptor; for Antagonist effect, cAMP measurement: in presence of PGE2
Experimental: FIG. 13. […] A: Cellular functional assay for EP2; B: Cellular functional assay for […].
To determine whether the inhibitory effect of DA001 on the ligand binding to EP receptors results from agonist or antagonist activity, DA001 was evaluated at a single concentration (10 μM) on cellular-specific receptor functional assays. Upon ligand binding, the EP receptors are activated which leads to an increase in intracellular cyclic AMP.
DA001 was evaluated at 6 concentrations in cellular assays assessing receptor function. Upon ligand binding, the EP2 and EP4 receptor is activated which leads to an increase in intracellular cyclic AMP.
DA021 inhibits PGE2 ligand binding to EP1, EP2 and EP4 receptors. To determine whether the inhibitory effect is due to agonist or antagonist activity, DA021 was evaluated and compared at 1 concentration (30 uM) in cellular assays assessing receptor function. Upon ligand binding, the EP receptors are activated which leads to an increase in intracellular cyclic AMP.

[2] = target: TP receptor (Homo sapiens, UniProt P21731); test: Radioligand competition binding assay, TP; conditions: target Thromoboxanes A, compound at 10 μM in duplicate, read-out: % inhibition of control specific binding
Experimental: DA001 was further evaluated against 32 receptor binding assays. Radioligand competition assays were conducted whereby DA001 was tested at one concentration (10 uM) in duplicate. […] It could compete with the radioligand [^3H] PGE2 binding at the EP1 and EP4 receptors, and weakly competed with the EP2 and FP receptors.
To determine the targets of DA compounds, the compound was assessed in binding assays for the family of prostanoid receptors. Both compounds were tested at a single concentration (10 μM) in duplicate. DA001 and DA021 inhibit the ligand binding of prostaglandin E2 receptors EP1, EP2 and EP4 and moderately to prostaglandin (PGF) to its receptor (FP), but not prostaglandin I (PGI2), thromoboxane A and prostaglandin D2 to their receptors.

[3] = tested on: cortical neurons; test: Cortical neuron survival assay against NMDA excitotoxicity (LDH); format: cell-based, Sprague-Dawley rats; conditions: 30 μM 24 hrs, NMDA 10-200 μM 20 min; at high concentrations of NMDA
Experimental: FIG. 12. Derivatives of DA001 rescue the cortical neurons from NMDA excitotoxicity. Cortical neurons were treated with compounds derived from of DA001 (30 μM) 24 hours prior to NMDA treatment. LDH released into the medium were measured 24 hours after NMDA treatment. Data are expressed as mean±s.e.m. and compared to solvent control (DMSO). *=P<0.05.
Hippocampal neurons/cortical neurons were prepared from embryonic day 18 Sprague-Dawley rats. […] Afterwards, cells were incubated in growth medium for 18-24 hours and detected with Cytotoxicity Detection Kit (1644793, Roche).
Cortical neurons were treated with DA021 or DA034 and subsequently subjected to varying concentrations of NMDA. […] LDH release into the medium was then measured.
Compounds with strong protective effect (>80% survival) against NMDA excitotoxicity are prototype DA001, derivatives DA010, DA021, DA034, DA040, DA081 and DA088. […] LDH released into the medium were measured 24 hours after NMDA treatment. Data are expressed as averaged percentage of cell survival (±s.e.m) calculated against solvent control (DMSO) and compared to no NMDA control (set as 100% survival). […]

Sequence of EP2 receptor (P43116 whole entry): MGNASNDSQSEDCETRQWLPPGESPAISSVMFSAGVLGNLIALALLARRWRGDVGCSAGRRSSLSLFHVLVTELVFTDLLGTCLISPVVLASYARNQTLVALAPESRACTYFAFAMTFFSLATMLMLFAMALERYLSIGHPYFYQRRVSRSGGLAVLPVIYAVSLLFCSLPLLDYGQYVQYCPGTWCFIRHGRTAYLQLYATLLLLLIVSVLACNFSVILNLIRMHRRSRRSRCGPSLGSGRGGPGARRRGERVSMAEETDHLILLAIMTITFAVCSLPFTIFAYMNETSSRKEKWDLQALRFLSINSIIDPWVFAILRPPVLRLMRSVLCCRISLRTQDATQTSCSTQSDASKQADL
Sequence of TP receptor (P21731 whole entry): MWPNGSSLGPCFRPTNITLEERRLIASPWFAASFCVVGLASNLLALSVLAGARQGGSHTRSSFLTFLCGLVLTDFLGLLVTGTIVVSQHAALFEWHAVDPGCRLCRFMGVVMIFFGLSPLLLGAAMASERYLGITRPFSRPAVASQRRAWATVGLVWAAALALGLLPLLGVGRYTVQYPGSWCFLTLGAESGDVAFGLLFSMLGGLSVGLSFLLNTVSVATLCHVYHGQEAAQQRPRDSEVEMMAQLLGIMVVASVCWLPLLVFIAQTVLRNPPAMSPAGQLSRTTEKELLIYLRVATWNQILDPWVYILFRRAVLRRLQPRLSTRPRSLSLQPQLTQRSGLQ

C=C(C)[C@@H]1CC[C@]2(C(=O)O)CC[C@]3(C)C(CC[C@@H]4[C@@]5(C)CC[C@H](O[C@@H]6OC[C@H](O)[C@H](O)[C@H]6O[C@@H]6O[C@@H](C)[C@H](O)[C@@H](O)[C@H]6O)[C@@](C)(CO)[C@@H]5CC[C@]43C)[C@@H]12 (stereo partly drawn) [DA001, 3-O-[α-L-rhamnopyranosyl-(1→2)-α-L-arabinopyranosyl]-3,23-dihydroxy-20(29)-lupen-28-oic acid] was tested, and the “Agonist effect, cAMP measurement” value ([1]; 10 μM) was −0.8%, the “Antagonist effect, cAMP measurement” value ([1]; 10 μM) was 2.2% and the IC50 ([1]; inhibition of PGE2-induced cAMP increase, 6 concentrations, read-out: IC50, antagonist effect) was 36 µM. The inhibition at 10 µM [2] was 17%.

With C=C(C)[C@@H]1CC[C@]2(/C=N/O)CC[C@]3(C)C(CCC4[C@@]5(C)CCC(=O)[C@@](C)(CO)[C@@H]5CC[C@]43C)C12 (stereo partly drawn) [DA021] the “Agonist effect, cAMP measurement” value ([1]; 30 uM) was −3, the “Antagonist effect, cAMP measurement” value ([1]; 30 uM) was 4 and the inhibition at 10 µM [2] was 17%. The “cell death (LDH release) vs DMSO control” value [3] was “significant reduction in cell death”.

With CC(=O)OC[C@]12CC[C@@H](C3(C)CO3)C1C1CCC3[C@@]4(C)CC[C@H](O)[C@@](C)(CO)[C@@H]4CC[C@@]3(C)[C@]1(C)CC2 (stereo partly drawn) [DA034] the “cell death (LDH release) vs DMSO control” value [3] was “significant reduction in cell death”.
